According to patent US12122763B2, “Substituted piperidines for androgen receptor degradation” (UBIX THERAPEUTICS, INC., priority 2020, dated 2024):

Molecular target: T1, Androgen Receptor (AR) protein (Homo sapiens, UniProt P10275, T878A)
T1 construct: endogenous in cells; host or cells: LNCaP
Test: Androgen Receptor (AR) protein degradation assay in LNCaP cells, western blotting
Type: cell-based
Conditions: 20 h; for inhibition at 0.01 µM: 0.01 μM compound; for inhibition at 0.1 µM: 0.1 μM compound; for inhibition at 1 µM: 1 μM compound; for inhibition at 10 µM: 10 μM compound
In short: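 AR protein level was detected by western blot (ECL) against GAPDH or β-actin controls, with 8 μg lysate protein loaded per lane after BCA quantification. Lysates came from LNCaP cells exposed to test compound for 20 h, following 3 days of growth in RPMI/10% FBS.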

T1 sequence (P10275 whole entry T878A): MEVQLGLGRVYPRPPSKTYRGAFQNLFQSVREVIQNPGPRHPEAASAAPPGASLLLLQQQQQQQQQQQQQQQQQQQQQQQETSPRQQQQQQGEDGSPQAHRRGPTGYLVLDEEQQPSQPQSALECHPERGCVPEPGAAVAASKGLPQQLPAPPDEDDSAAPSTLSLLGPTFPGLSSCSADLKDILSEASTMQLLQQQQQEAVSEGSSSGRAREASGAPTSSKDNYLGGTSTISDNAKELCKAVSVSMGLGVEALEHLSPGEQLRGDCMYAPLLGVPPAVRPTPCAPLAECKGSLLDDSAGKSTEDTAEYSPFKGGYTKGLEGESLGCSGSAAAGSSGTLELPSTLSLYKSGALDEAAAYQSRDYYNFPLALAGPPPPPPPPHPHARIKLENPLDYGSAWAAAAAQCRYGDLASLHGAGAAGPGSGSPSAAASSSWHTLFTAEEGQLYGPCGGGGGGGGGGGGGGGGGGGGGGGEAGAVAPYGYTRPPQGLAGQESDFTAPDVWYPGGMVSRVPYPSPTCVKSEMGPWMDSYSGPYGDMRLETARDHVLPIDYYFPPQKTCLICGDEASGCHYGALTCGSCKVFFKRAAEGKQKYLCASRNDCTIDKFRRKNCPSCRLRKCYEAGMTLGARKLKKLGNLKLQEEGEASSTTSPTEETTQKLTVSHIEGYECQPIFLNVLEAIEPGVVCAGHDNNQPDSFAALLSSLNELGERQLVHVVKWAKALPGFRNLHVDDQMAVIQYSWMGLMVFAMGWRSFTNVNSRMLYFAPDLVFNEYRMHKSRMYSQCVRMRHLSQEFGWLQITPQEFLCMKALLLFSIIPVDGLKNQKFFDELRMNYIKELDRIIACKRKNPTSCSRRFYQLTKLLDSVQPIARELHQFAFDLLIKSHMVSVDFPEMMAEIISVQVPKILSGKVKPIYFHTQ
T1 sequence (Q96SW2 whole entry partner): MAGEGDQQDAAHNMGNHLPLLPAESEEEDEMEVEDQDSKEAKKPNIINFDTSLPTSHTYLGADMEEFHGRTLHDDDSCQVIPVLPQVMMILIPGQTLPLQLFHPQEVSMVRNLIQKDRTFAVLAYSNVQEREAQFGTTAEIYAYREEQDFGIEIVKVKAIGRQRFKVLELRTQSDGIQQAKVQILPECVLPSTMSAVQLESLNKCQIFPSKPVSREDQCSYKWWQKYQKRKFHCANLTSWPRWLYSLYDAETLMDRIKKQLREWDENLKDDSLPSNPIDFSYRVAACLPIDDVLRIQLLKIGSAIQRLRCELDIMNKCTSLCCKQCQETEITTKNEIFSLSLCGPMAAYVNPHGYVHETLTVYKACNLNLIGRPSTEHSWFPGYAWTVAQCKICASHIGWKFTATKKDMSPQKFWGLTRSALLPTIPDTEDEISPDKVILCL

| Structure (SMILES) | inhibition at 0.01 µM [%] | inhibition at 0.1 µM [%] | inhibition at 1 µM [%] | inhibition at 10 µM [%] |
| --- | --- | --- | --- | --- |
| N#Cc1ccc(N2CCC(C(=O)Nc3ccc(N4CCN(CCOC5CCN(c6ccc7c(c6)C(=O)N(C6CCC(=O)NC6=O)C7=O)CC5)CC4)cn3)CC2)cc1C(F)(F)F (stereo not drawn) [Example 117, 1-(4-cyano-3-(trifluoromethyl)phenyl)-N-(5-(4-(2-((1-(2-(2,6-dioxopiperidin-3-yl)-1,3-dioxoisoindolin-5-yl)piperidin-4-yl)oxy)ethyl)piperazin-1-yl)pyridin-2-yl)piperidine-4-carboxamide] | 35 | 84 | 94 | – |
| N#Cc1ccc(N2CCC(C(=O)Nc3ccc(N4CCN(CCOC5CCN(c6ccc7c(c6)C(=O)N(C6CCC(=O)NC6=O)C7=O)CC5)CC4)cn3)CC2)cc1Cl (stereo not drawn) [Example 118, 1-(3-chloro-4-cyanophenyl)-N-(5-(4-(2-((1-(2-(2,6-dioxopiperidin-3-yl)-1,3-dioxoisoindolin-5-yl)piperidin-4-yl)oxy)ethyl)piperazin-1-yl)pyridin-2-yl)piperidine-4-carboxamide] | 34 | 62 | 88 | – |
| N#Cc1ccc(N2CCC(C(=O)Nc3ccc(N4CCN(CCC5CCN(c6ccc7c(c6)C(=O)N(C6CCC(=O)NC6=O)C7=O)CC5)CC4)cn3)CC2)cc1C(F)(F)F (stereo not drawn) [Example 119, 1-(4-cyano-3-(trifluoromethyl)phenyl)-N-(5-(4-(2-(1-(2-(2,6-dioxopiperidin-3-yl)-1,3-dioxoisoindolin-5-yl)piperidin-4-yl)ethyl)piperazin-1-yl)pyridin-2-yl)piperidine-4-carboxamide] | 21 | 90 | 26 | – |
| N#Cc1ccc(N2CCC(C(=O)Nc3ccc(N4CCN(CCC5CCN(c6ccc7c(c6)C(=O)N(C6CCC(=O)NC6=O)C7=O)CC5)CC4)cn3)CC2)cc1Cl (stereo not drawn) [Example 120, 1-(3-chloro-4-cyanophenyl)-N-(5-(4-(2-(1-(2-(2,6-dioxopiperidin-3-yl)-1,3-dioxoisoindolin-5-yl)piperidin-4-yl)ethyl)piperazin-1-yl)pyridin-2-yl)piperidine-4-carboxamide] | 0 | 88 | 96 | – |
| N#Cc1ccc(N2CCC(C(=O)Nc3ccc(N4CC5(CCN(CC6CCN(c7ccc8c(c7)C(=O)N(C7CCC(=O)NC7=O)C8=O)CC6)CC5)C4)cn3)CC2)cc1C(F)(F)F (stereo not drawn) [Example 121, 1-(4-cyano-3-(trifluoromethyl)phenyl)-N-(5-(7-((1-(2-(2,6-dioxopiperidin-3-yl)-1,3-dioxoisoindolin-5-yl)piperidin-4-yl)methyl)-2,7-diazaspiro[3.5]nonan-2-yl)pyridin-2-yl)piperidine-4-carboxamide] | 81 | 98 | 98 | – |
| N#Cc1ccc(N2CCC(C(=O)Nc3ccc(N4CC5(CCN(CC6CCN(c7ccc8c(c7)C(=O)N(C7CCC(=O)NC7=O)C8=O)CC6)CC5)C4)cn3)CC2)cc1Cl (stereo not drawn) [Example 122, 1-(3-chloro-4-cyanophenyl)-N-(5-(7-((1-(2-(2,6-dioxopiperidin-3-yl)-1,3-dioxoisoindolin-5-yl)piperidin-4-yl)methyl)-2,7-diazaspiro[3.5]nonan-2-yl)pyridin-2-yl)piperidine-4-carboxamide] | 71 | 76 | 74 | – |
| N#Cc1ccc(N2CCC(C(=O)Nc3ccc(N4CC5(CCN(CC6CN(c7ccc8c(c7)C(=O)N(C7CCC(=O)NC7=O)C8=O)C6)CC5)C4)cn3)CC2)cc1C(F)(F)F (stereo not drawn) [Example 123, 1-(4-cyano-3-(trifluoromethyl)phenyl)-N-(5-(7-((1-(2-(2,6-dioxopiperidin-3-yl)-1,3-dioxoisoindolin-5-yl)azetidin-3-yl)methyl)-2,7-diazaspiro[3.5]nonan-2-yl)pyridin-2-yl)piperidine-4-carboxamide] | 55 | 91 | 97 | – |
| N#Cc1ccc(N2CCC(C(=O)Nc3ccc(N4CC5(CCN(CC6CN(c7ccc8c(c7)C(=O)N(C7CCC(=O)NC7=O)C8=O)C6)CC5)C4)cn3)CC2)cc1Cl (stereo not drawn) [Example 124, 1-(3-chloro-4-cyanophenyl)-N-(5-(7-((1-(2-(2,6-dioxopiperidin-3-yl)-1,3-dioxoisoindolin-5-yl)azetidin-3-yl)methyl)-2,7-diazaspiro[3.5]nonan-2-yl)pyridin-2-yl)piperidine-4-carboxamide] | 52 | 88 | 96 | – |
| N#Cc1ccc(N2CCC(C(=O)Nc3ccc(N4CC5(CCN(C[C@H]6CCN(c7ccc8c(c7)C(=O)N(C7CCC(=O)NC7=O)C8=O)C6)CC5)C4)cn3)CC2)cc1C(F)(F)F (stereo partly drawn) [Example 125, 1-(4-cyano-3-(trifluoromethyl)phenyl)-N-(5-(7-(((3R)-1-(2-(2,6-dioxopiperidin-3-yl)-1,3-dioxoisoindolin-5-yl)pyrrolidin-3-yl)methyl)-2,7-diazaspiro[3.5]nonan-2-yl)pyridin-2-yl)piperidine-4-carboxamide] | 25 | 84 | 92 | – |
| N#Cc1ccc(N2CCC(C(=O)Nc3ccc(N4CC5(CCN(C[C@@H]6CCN(c7ccc8c(c7)C(=O)N(C7CCC(=O)NC7=O)C8=O)C6)CC5)C4)cn3)CC2)cc1C(F)(F)F (stereo partly drawn) [Example 126, 1-(4-cyano-3-(trifluoromethyl)phenyl)-N-(5-(7-(((3S)-1-(2-(2,6-dioxopiperidin-3-yl)-1,3-dioxoisoindolin-5-yl)pyrrolidin-3-yl)methyl)-2,7-diazaspiro[3.5]nonan-2-yl)pyridin-2-yl)piperidine-4-carboxamide] | 51 | 89 | 96 | – |
| N#Cc1ccc(N2CCC(C(=O)Nc3ccc(N4CCC5(CC4)CN(CC4CCN(c6ccc7c(c6)C(=O)N(C6CCC(=O)NC6=O)C7=O)CC4)C5)cn3)CC2)cc1C(F)(F)F (stereo not drawn) [Example 127, 1-(4-cyano-3-(trifluoromethyl)phenyl)-N-(5-(2-((1-(2-(2,6-dioxopiperidin-3-yl)-1,3-dioxoisoindolin-5-yl)piperidin-4-yl)methyl)-2,7-diazaspiro[3.5]nonan-7-yl)pyridin-2-yl)piperidine-4-carboxamide] | 34 | 52 | 66 | – |
| N#Cc1ccc(N2CCC(C(=O)Nc3ccc(N4CCC5(CC4)CN(CC4CN(c6ccc7c(c6)C(=O)N(C6CCC(=O)NC6=O)C7=O)C4)C5)cn3)CC2)cc1C(F)(F)F (stereo not drawn) [Example 128, 1-(4-cyano-3-(trifluoromethyl)phenyl)-N-(5-(2-((1-(2-(2,6-dioxopiperidin-3-yl)-1,3-dioxoisoindolin-5-yl)azetidin-3-yl)methyl)-2,7-diazaspiro[3.5]nonan-7-yl)pyridin-2-yl)piperidine-4-carboxamide] | 28 | 43 | 61 | – |
| N#Cc1ccc(N2CCC(C(=O)Nc3ccc(N4CCC5(CC4)CN(C(=O)C4CCN(c6ccc7c(c6)C(=O)N(C6CCC(=O)NC6=O)C7=O)CC4)C5)cn3)CC2)cc1C(F)(F)F (stereo not drawn) [Example 129, 1-(4-cyano-3-(trifluoromethyl)phenyl)-N-(5-(2-(1-(2-(2,6-dioxopiperidin-3-yl)-1,3-dioxoisoindolin-5-yl)piperidine-4-carbonyl)-2,7-diazaspiro[3.5]nonan-7-yl)pyridin-2-yl)piperidine-4-carboxamide] | 11 | 42 | 71 | – |
| N#Cc1ccc(N2CCC(C(=O)Nc3ccc(N4CCN(CC5CCN(C(=O)CNc6ccc7c(c6)C(=O)N(C6CCC(=O)NC6=O)C7=O)CC5)CC4)cn3)CC2)cc1C(F)(F)F (stereo not drawn) [Example 130, 1-(4-cyano-3-(trifluoromethyl)phenyl)-N-(5-(4-((1-((2-(2,6-dioxopiperidin-3-yl)-1,3-dioxoisoindolin-5-yl)glycyl)piperidin-4-yl)methyl)piperazin-1-yl)pyridin-2-yl)piperidine-4-carboxamide] | 78 | 95 | 95 | 93 |
| N#Cc1ccc(N2CCC(C(=O)Nc3ccc(C#CC4CCN(CC5CCN(c6ccc7c(c6)C(=O)N(C6CCC(=O)NC6=O)C7=O)CC5)CC4)cn3)CC2)cc1C(F)(F)F (stereo not drawn) [Example 131, 1-(4-cyano-3-(trifluoromethyl)phenyl)-N-(5-((1-((1-(2-(2,6-dioxopiperidin-3-yl)-1,3-dioxoisoindolin-5-yl)piperidin-4-yl)methyl)piperidin-4-yl)ethynyl)pyridin-2-yl)piperidine-4-carboxamide] | 28 | 66 | 82 | 87 |
| N#Cc1ccc(N2CCC(C(=O)Nc3ccc(C#CC4CCN(CC5CN(c6ccc7c(c6)C(=O)N(C6CCC(=O)NC6=O)C7=O)C5)CC4)cn3)CC2)cc1C(F)(F)F (stereo not drawn) [Example 132, 1-(4-cyano-3-(trifluoromethyl)phenyl)-N-(5-((1-((1-(2-(2,6-dioxopiperidin-3-yl)-1,3-dioxoisoindolin-5-yl)azetidin-3-yl)methyl)piperidin-4-yl)ethynyl)pyridin-2-yl)piperidine-4-carboxamide] | 31 | 67 | 72 | 77 |
| N#Cc1ccc(N2CCC(C(=O)Nc3ccc(CCC4CCN(CC5CCN(c6ccc7c(c6)C(=O)N(C6CCC(=O)NC6=O)C7=O)CC5)CC4)cn3)CC2)cc1C(F)(F)F (stereo not drawn) [Example 133, 1-(4-cyano-3-(trifluoromethyl)phenyl)-N-(5-(2-(1-((1-(2-(2,6-dioxopiperidin-3-yl)-1,3-dioxoisoindolin-5-yl)piperidin-4-yl)methyl)piperidin-4-yl)ethyl)pyridin-2-yl)piperidine-4-carboxamide] | 60 | 93 | 98 | – |
